Laboratory results: US20220280581A1, “BENEFICIAL BACTERIA AND SECRETORY IMMUNOGLOBULIN A” (priority 2019, published 2022)

What was measured:
pooled human milk SIgA [1] = assay: Binding of SIgA to bacteria by flow cytometry; conditions: for binding of a heterogeneous pool of SIgA: 0-1000 μg SIgA per 1e7 CFU; for association to SIgA when first grown on 2′FL: 1% 2′FL in the final media
Procedure: Binding of sIgA to bacteria. Bacteria from Table 1 were resuspended in 0.8% saline at a concentration of 1×10^7 CFU/mL. SIgA was then added at 0, 10, 100, 500 and 1000 μg per 1×10^7 colony forming units (CFU) of bacteria and incubated at 24° C. for 30 min. Following incubation, bacteria were pelleted at 14000×g for 4 min and washed with saline twice to remove non-adherent SIgA.
(§1) Flow cytometry and immunofluorescence: To measure binding cells were fixed using 4% w/v paraformaldehyde for 30 min, washed with PBS, then incubated with 1% bovine serum albumin (BSA) blocking buffer for 1 h. Cells were stained with 1/100 dilution SYTOT™ 9 (S34854, ThermoFisher) for live cells and goat anti-human IgA conjugated to Alexa 647 fluorophore using 1/50 dilution in 1% BSA (ab96998, Abcam). For flow cytometry, all samples were acquired and analyzed on a FACScan flow cytometer (BD Biosciences, Mountain View, Calif.) using the CellQuest software program. For live/dead analyses following in vitro digestion, cells were stained with SYTOT™ 9 (1/100 dilution) for live cells and propidium iodine (1/1000 dilution) for dead cells or cells with compromised membranes.

[2] = Protection from simulated gastric digestion in vitro (pepsin, pancreatin): viability by CFU plating and live/dead flow cytometry; conditions: for Slope (CFU/% SIgA): regression of viable CFU post-digestion on SIgA association
Procedure: as §1
Protection from digestion using an in vitro model. To determine the extent to which the SIgA-glycan-mediated-bacterial complexes that included the Ig-bound secretory component (SC) where able to protect bacteria and SIgA from proteolytic degradation, an in vitro model was used. Simulated gastric digestion was performed by resuspending bacteria in 200 ul of 0.1% porcine pepsin (Sigma—Aldrich, St. Louis, Mo.) in PBS at pH 4. Samples were placed in an incubating shaker (New Brunswick Scientific, Edison, N.J.) at 140 rpm at 37° C. for 15 min. Cells were then pelleted and resuspended in 200 ul of 0.04% pancreatin (Sigma— Aldrich) in PBS pH 7, and the samples placed in the incubator shaker at 140 rpm at 37° C. for 5 min. Bacteria were pelleted and washed twice with PBS to remove residual enzymes, then evaluated for viability through CFU serial dilution and spot plating, and with live/dead flow cytometry analysis.

[3] = test system: Caco-2 colonic cells co-cultured with HT29-MTX E12 cells; assay: Bacterial adherence to colonocyte co-cultures; format: cell-based, human
Procedure: (§2) Mammalian cell culture binding assays: Caco-2 colonic cells were co-cultured with HT29-MTX E12 cells at a ratio of 3:1 and seeded at a density of 5×10^4 cells/well in 24-well plates, maintained as described above. On day 1 post-confluence, medium was removed, the cells washed once with PBS, and DMEM without FBS or antibiotics was added prior to binding assay. Bacteria were prepared as described above, with or without SIgA and resuspended in PBS at 1×10^7 CFU/mL. 4×10^5 CFU were added to the colonocytes and the plate was centrifuged at 600×g for 5 min to ensure bacteria association with the cells. After 2 h of incubation at 37° C. in 5% CO2, medium was removed and saved for cytokine analysis. Cells were washed once with PBS, and to one set of replicates, cells were lysed with 0.5% Triton X-100 and serial dilutions of the cell suspensions were plated on MRS and incubated anaerobically at 37° C. overnight to test viability. To a second set of replicates, TRIzol (15596018; Life Technologies) was added directly to washed cells for RNA extraction.

[4] = test system: colonocytes (Caco-2 / HT29-MTX E12 co-culture); assay: Colonocyte barrier function and immune gene expression (RT-qPCR); format: cell-based, human; conditions: 1000 μg SIgA per 1e7 CFU vs no SIgA
Procedure: as §2
Mammalian cell culture RT-qPCR for gene expression: Total RNA from mammalian co-culture samples were extracted via the TRIzol method. Total RNA (1 μg) was treated with Turbo DNAse (EN0521; Thermo Fisher) to remove genomic DNA, then used for reverse transcription producing cDNA, performed according to manufacturer protocol (High Capacity Complementary DNA Reverse Transcription Kit; Applied Biosystems). Gene list and primer sequences can be found in Table 2. Real-time PCR was performed with the Quantistudio 3 qPCR thermocycler (Applied Biosystems) using SyberGreen master mix (Life Technologies). Actin and GADPH were used as house-keeping genes. Analysis was performed using Quantistudio Design and Analysis Software v.1.4.3.

pooled human milk SIgA [5] = assay: Binding of SIgA to bacteria by flow cytometry; conditions: 100 μg SIgA to 1e6 cfu bacteria
SIgA = assay: Loss of SIgA-bacteria association after deglycosylation; format: binding

Substance | Slope (CFU/% SIgA) ([2]; substrate glucose) | Slope (CFU/% SIgA) ([2]; substrate lactose) | Slope (adherent CFU/% SIgA association) ([3]; substrate 2'FL) | Slope (adherent CFU/% SIgA association) ([3]; substrate glucose) | Slope (adherent CFU/% SIgA association) ([3]; substrate lactose) | Slope (adherent CFU/% SIgA association) ([3]; substrate all) | other results
Lactobacillus rhamnosus ATCC 7469 | −2121 | −23719 | 333.3 adherent CFU/% SIgA associatio | −138.4 adherent CFU/% SIgA associatio | 456.6 adherent CFU/% SIgA associatio |  | binding of a heterogeneous pool of SIgA (pooled human milk SIgA [1]): concentration dependent; difference post-digestion with or without SIgA ([2]; grown in 1% glucose): no significant difference; Slope (CFU/% SIgA) ([2]; substrate 2′FL): −39446 CFU/% SIgA; slope of regression plot of adherent bacteria with SIgA association ([3]; lactose-grown): 37.7 adherent CFU per % population associated with SIgA; decrease of IL-8 gene expression when first complexed with SIgA [4]: 4 fold; decrease of pIgR gene expression when first complexed with SIgA [4]: 4 fold
Bifidobacterium pseudocatenulatum MP80 | 82548 |  | −50.6 adherent CFU/% SIgA associatio | 14.2 adherent CFU/% SIgA associatio |  | 32.0 adherent CFU/% SIgA associatio | association to SIgA when first grown on 2′FL (pooled human milk SIgA [1]): increased association to SIgA; viable bacteria post-digestion ([2]; grown on glucose, 100 or 1000 μg SIgA/1e7 CFU): 4e6; viable bacteria post-digestion ([2]; grown on glucose, no SIgA): 2e5 CFU; slope of regression plot of viability with SIgA association ([2]; post-digestion, grown on glucose): 8.2e4 CFU per % population SIgA association; Slope (CFU/% SIgA) ([2]; substrate 2′FL): 51114 CFU/% SIgA; ability to bind to pooled human milk SIgA (pooled human milk SIgA [5]): 40.3%; increase in SIgA binding when first grown on an HMO substrate (pooled human milk SIgA [5]): 61.7%
Lactobacillus acidophilus NCFM | −8952 | 38918 |  | −3014.0 adherent CFU/% SIgA associatio | −3341.0 adherent CFU/% SIgA associatio | −3134.0 adherent CFU/% SIgA associatio | slope m of association to SIgA post-digestion ([2]; grown on glucose): −8.9e3 CFU/% SIgA association
Bifidobacterium bifidum SC555 |  |  | 16.9 adherent CFU/% SIgA associatio | 2288.0 adherent CFU/% SIgA associatio |  | 896.4 adherent CFU/% SIgA associatio | 
Lactobacillus reuteri DSM | −38517 | 47155 |  | −9455.0 adherent CFU/% SIgA associatio | 524.1 adherent CFU/% SIgA associatio | −4652.0 adherent CFU/% SIgA associatio | slope m of association to SIgA post-digestion ([2]; grown on glucose): −3.9e4 CFU/% SIgA association; loss of SIgA-bacteria complexes after deglycosylation (SIgA): over 7%
Bifidobacterium breve SC95 |  | −106.9 |  | 9083.0 adherent CFU/% SIgA associatio | 4617.0 adherent CFU/% SIgA associatio | 13289.0 adherent CFU/% SIgA associatio | live bacteria post-digestion (live-dead flow cytometry) ([2]; 1000 μg SIgA/1e7 CFU): 57.8%; live bacteria post-digestion (live-dead flow cytometry) ([2]; no SIgA): no viable bacteria; Slope (CFU/% SIgA) ([2]; substrate LNnT): 223.1 CFU/% SIgA; Slope (adherent CFU/% SIgA association) ([3]; substrate LNnT): 19516.0 adherent CFU/% SIgA associatio; ability to bind to pooled human milk SIgA (pooled human milk SIgA [5]): 16%; increase in SIgA binding when first grown on an HMO substrate (pooled human milk SIgA [5]): 45%
Bifidobacterium longum ssp. longum SC596 |  |  | 37.7 adherent CFU/% SIgA associatio | 28.5 adherent CFU/% SIgA associatio | −13.3 adherent CFU/% SIgA associatio | 27.1 adherent CFU/% SIgA associatio | binding of a heterogeneous pool of SIgA (pooled human milk SIgA [1]): concentration dependent; association to SIgA when first grown on 2′FL (pooled human milk SIgA [1]): increased association to SIgA; live bacteria post-digestion (live-dead flow cytometry) ([2]; 1000 μg SIgA/1e7 CFU): 50.85%; live bacteria post-digestion (live-dead flow cytometry) ([2]; no SIgA): 29.05%; increased adherence to colonocytes with SIgA association ([3]; first grown on 2′FL): 4e3
